The test system of this experiment is GM3. The experiment can be described thus: GM3 Elisa assay. The class given is cell-based. As to conditions: Table 3 (IC 50 Values); B16-FO cells; read-out: IC50_uM_Mean. The procedure, abridged: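 Cellular GM3 ELISA: fixed cells probed with monoclonal anti-GM3 (NeuAc), HRP-conjugated anti-IgM and fluorogenic Quantablu substrate, read at Ex 325/Em 420. Cells were B16-FO, treated 2 days after a 6 h attachment on collagen-coated wells.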
As for `COc1ccc(OCCC(=O)N[C@H](CN2CCC[C@H]2C)[C@@H](O)c2ccc3c(c2)OCCO3)cc1` [Compound 528], the IC50 lay in the range of 1000 to 3000 nM. In the case of `COc1ccc(C(=O)CCCCCC(=O)N[C@H](CN2CCC[C@H]2C)[C@@H](O)c2ccc3c(c2)OCCO3)cc1` [Compound 529], the IC50 is no more than 100 nM. In the case of `CCCCCCCC(=O)N[C@H](CN1CCC[C@H]1C)[C@@H](O)c1ccc2c(c1)OCCO2` [Compound 530] it was 3000 to 10000 nM. On to `COc1ccc(C(=O)CCCCCC(=O)N[C@H](CN2CC[C@@H](F)C2)[C@H](O)c2ccc3c(c2)OCCO3)cc1` [Compound 531], for which the IC50 is no more than 100 nM. For `COc1ccc(C(=O)CCCCCC(=O)N[C@H](CN2CC[C@H](O)C2)[C@H](O)c2ccc3c(c2)OCCO3)cc1` [Compound 532] the value was no more than 100 nM; for `COC[C@@H]1CCCN1C[C@@H](NC(=O)CCCCCC(=O)c1ccc(OC)cc1)[C@@H](O)c1ccc2c(c1)OCCO2` [Compound 533], 100 to 1000 nM. As to `CCCCCCCC(=O)N[C@H](CN1CCC[C@H]1COC)[C@@H](O)c1ccc2c(c1)OCCO2` [Compound 534], the IC50 was in the range of 3000 to 10000 nM. Regarding `COC[C@@H]1CCCN1C[C@@H](NC(=O)CCOc1ccc(OC)cc1)[C@@H](O)c1ccc2c(c1)OCCO2` [Compound 535], the IC50 was 3000 to 10000 nM. `COc1ccc(C(=O)CCCCCC(=O)NCCN2CCCC2)cc1` [Compound 536]: the IC50 was in the range of 3000 to 10000 nM.

As to `COc1ccc(C(=O)CCCCCC(=O)N[C@H](CN2CC3CC3C2)[C@H](O)c2ccc3c(c2)OCCO3)cc1` (some centres unmarked) [Compound 537], the IC50 is no more than 100 nM. Regarding `COCC1CCCN1C[C@@H](NC(=O)CCOc1ccc(OC)cc1)[C@H](O)c1ccc2c(c1)OCCO2` (some centres unmarked) [Compound 538], the IC50 fell in the range of 3000 to 10000 nM.

In the case of `COC[C@H]1CCCN1C[C@@H](NC(=O)CCCCCC(=O)c1ccc(OC)cc1)[C@H](O)c1ccc2c(c1)OCCO2` [Compound 539], the IC50 was 3000 to 10000 nM. Consider `CCCCCCCC(=O)N[C@H](CN1CCC[C@@H]1COC)[C@H](O)c1ccc2c(c1)OCCO2` [Compound 540], for which the IC50 lay within 3000 to 10000 nM. Turning to `COc1ccc(C(=O)CCCCCC(=O)N[C@@H](Cc2ccccc2)CN2CCCC2)cc1` [Compound 541], the IC50 is 3000 to 10000 nM. In the case of `COc1ccc(OCCC(=O)N[C@H](CN2CCC[C@H]2C(F)(F)F)[C@H](O)c2ccc3c(c2)OCCO3)cc1` [Compound 542] it was 3000 to 10000 nM; in that of `CCCCCCCC(=O)N[C@H](CN1CCC[C@H]1C(F)(F)F)[C@H](O)c1ccc2c(c1)OCCO2` [Compound 543], 3000 to 10000 nM; in that of `COc1ccc(OCCC(=O)N[C@H](CN2C[C@@H]3CC[C@H]2C3)[C@H](O)c2ccc3c(c2)OCCO3)cc1` [Compound 544], 100 to 1000 nM.

As for `CCCCCCCC(=O)N[C@H](CN1C[C@@H]2CC[C@H]1C2)[C@H](O)c1ccc2c(c1)OCCO2` [Compound 545], the IC50 lay in the range of 100 to 1000 nM. In the case of `CCCCCCCC(=O)N[C@H](CN1CCC[C@@H]1C(F)(F)F)[C@H](O)c1ccc2c(c1)OCCO2` [Compound 546] it was 3000 to 10000 nM. Turning to `COc1ccc(C(=O)CCCCCC(=O)N[C@H](CN2C[C@@H]3CC[C@H]2C3)[C@H](O)c2ccc3c(c2)OCCO3)cc1` [Compound 547], the IC50 is no more than 100 nM.

For `COc1ccc(C(=O)CCCCCC(=O)N[C@H](CN2[C@H](C)CC[C@H]2C)[C@H](O)c2ccc3c(c2)OCCO3)cc1` [Compound 548], the IC50 is 1000 to 3000 nM.

Take `CCCCCCCC(=O)N[C@H](CN1[C@H](C)CC[C@H]1C)[C@H](O)c1ccc2c(c1)OCCO2` [Compound 549]: the IC50 was in the range of 3000 to 10000 nM. In the case of `COc1ccc(OCCC(=O)N[C@H](CN2[C@H](C)CC[C@H]2C)[C@H](O)c2ccc3c(c2)OCCO3)cc1` [Compound 550] it was 3000 to 10000 nM; in that of `COc1ccc(OCCC(=O)N[C@H](CN2CCCC2(C)C)[C@H](O)c2ccc3c(c2)OCCO3)cc1` [Compound 551], 3000 to 10000 nM. As for `COc1ccc(C(=O)CCCCCC(=O)N[C@H](CN2CCCC2(C)C)[C@H](O)c2ccc3c(c2)OCCO3)cc1` [Compound 552], the IC50 lay within 1000 to 3000 nM. On to `CCCCCCCC(=O)N[C@H](CN1CCCC1(C)C)[C@H](O)c1ccc2c(c1)OCCO2` [Compound 553], for which the IC50 was in the range of 3000 to 10000 nM. Take `O=C(CCCCOC1CCOCC1)N[C@H](CN1CCCC1)[C@H](O)c1ccc2c(c1)OCCO2` [Compound 554]: the IC50 was 3000 to 10000 nM. In the case of `COc1ccc(S(=O)(=O)CCCCCC(=O)N[C@H](CN2CCCC2)[C@H](O)c2ccc3c(c2)OCCO3)cc1` [Compound 555] it was 100 to 1000 nM; in that of `O=C(CCCCC(=O)C1CCOCC1)N[C@H](CN1CCCC1)[C@H](O)c1ccc2c(c1)OCCO2` [Compound 556], 3000 to 10000 nM. For `O=C(CCCCS(=O)(=O)C1CCCCC1)N[C@H](CN1CCCC1)[C@H](O)c1ccc2c(c1)OCCO2` [Compound 557] the value was 3000 to 10000 nM; for `O=C(CCCCC(=O)C1CCC(F)(F)CC1)N[C@H](CN1CCCC1)[C@H](O)c1ccc2c(c1)OCCO2` [Compound 558], 1000 to 3000 nM. For `O=C(CCCCCC1CCOCC1)N[C@H](CN1CCCC1)[C@H](O)c1ccc2c(c1)OCCO2` [Compound 559] the value was 100 to 1000 nM. For `O=C(CCCCS(=O)(=O)C12CC3CC(CC(C3)C1)C2)N[C@H](CN1CCCC1)[C@H](O)c1ccc2c(c1)OCCO2` [Compound 560], the IC50 lay within 100 to 1000 nM. In the case of `O=C(CCCS(=O)(=O)C1CCCCC1)N[C@H](CN1CCCC1)[C@H](O)c1ccc2c(c1)OCCO2` [Compound 561] it was 3000 to 10000 nM. For `O=C(CCCCCS(=O)(=O)C1CCCCC1)N[C@H](CN1CCCC1)[C@H](O)c1ccc2c(c1)OCCO2` [Compound 562] the value was 100 to 1000 nM. For `CCCCCCCC(=O)N[C@H](Cc1ncc[nH]1)[C@H](O)c1ccc2c(c1)OCCO2` [Compound 563] the value was 3000 to 10000 nM; for `COc1ccc(S(=O)(=O)CCCCCC(=O)N[C@H](CN2CC[C@@H](F)C2)[C@H](O)c2ccc3c(c2)OCCO3)cc1` [Compound 564], 100 to 1000 nM.

As to `O=C(CCCCCC(=O)c1ccc(F)cc1)N[C@H](CN1CC[C@@H](F)C1)[C@H](O)c1ccc2c(c1)OCCO2` [Compound 565], the IC50 was no more than 100 nM. In the case of `O=C(CCCOc1ccc(F)cc1)N[C@H](CN1CCCC1)[C@H](O)c1ccc2c(c1)OCCO2` [Compound 566] it was no more than 100 nM; in that of `O=C(CCCOc1ccc(F)cc1)N[C@H](CN1CC[C@@H](F)C1)[C@H](O)c1ccc2c(c1)OCCO2` [Compound 567], 100 to 1000 nM. In the case of `O=C(CCOc1ccc(F)cc1)N[C@H](CN1CC[C@@H](F)C1)[C@H](O)c1ccc2c(c1)OCCO2` [Compound 568] it was 100 to 1000 nM; in that of `Cc1nccn1C[C@@H](NC(=O)CCCCCC(=O)c1ccc(F)cc1)C(O)c1ccc2c(c1)OCCO2` (some centres unmarked) [Compound 569], 3000 to 10000 nM; in that of `Cc1nccn1C[C@@H](NC(=O)CCCOc1ccc(F)cc1)[C@H](O)c1ccc2c(c1)OCCO2` [Compound 570], 3000 to 10000 nM. For `CCCCCCCC(=O)N[C@H](Cn1ccnc1C)[C@H](O)c1ccc2c(c1)OCCO2` [Compound 571] the value was 3000 to 10000 nM; for `O=C(CCCCS(=O)(=O)C1CCCCC1)N[C@H](CN1CC[C@@H](F)C1)[C@H](O)c1ccc(OCc2ccccc2)cc1` [Compound 572], 100 to 1000 nM. Consider `O=C(CCCCC(=O)C1CCC(F)(F)CC1)N[C@H](CN1CC[C@@H](F)C1)[C@H](O)c1ccc(OCc2ccccc2)cc1` [Compound 573], for which the IC50 is 100 to 1000 nM. In the case of `O=C(CCCCCC1CCOCC1)N[C@H](CN1CC[C@@H](F)C1)C(O)c1cccc(OCc2ccccc2)c1` (some centres unmarked) [Compound 574], the IC50 lay in the range of 100 to 1000 nM. In the case of `O=C(CCCCOC1CCOCC1)N[C@H](CN1CC[C@@H](F)C1)[C@H](O)c1ccc(OCc2ccccc2)cc1` [Compound 575] it was 100 to 1000 nM. For `O=C(CCCCC(=O)C1CCOCC1)N[C@H](CN1CC[C@@H](F)C1)[C@H](O)c1ccc(OCc2ccccc2)cc1` [Compound 576] the value was 100 to 1000 nM.

On to `O=C(CCCS(=O)(=O)C1CCCCC1)N[C@H](CN1CC[C@@H](F)C1)[C@H](O)c1ccc(OCc2ccccc2)cc1` [Compound 577], for which the IC50 lay in the range of 100 to 1000 nM.

On to `O=C(CCCCCS(=O)(=O)C1CCCCC1)N[C@H](CN1CC[C@@H](F)C1)[C@H](O)c1ccc(OCc2ccccc2)cc1` [Compound 578], for which the IC50 was no more than 100 nM. As to `O=C(N[C@H](CN1CCCC1)[C@H](O)c1ccc2c(c1)OCCO2)C1CCOCC1` [Compound 579], the IC50 is 3000 to 10000 nM. For `O=C(CC1CCOCC1)N[C@H](CN1CCCC1)[C@H](O)c1ccc2c(c1)OCCO2` [Compound 580], the IC50 was 3000 to 10000 nM. For the compound `O=C(CCCCC1CCOCC1)N[C@H](CN1CCCC1)[C@H](O)c1ccc2c(c1)OCCO2` [Compound 581], the IC50 was in the range of 100 to 1000 nM. For `O=C(CCC1CCOCC1)N[C@H](CN1CCCC1)[C@H](O)c1ccc2c(c1)OCCO2` [Compound 582] the value was 3000 to 10000 nM; for `COc1ccc(C(=O)CCCCCC(=O)N[C@H](CN2CC[C@H](OC)C2)[C@H](O)c2ccc3c(c2)OCCO3)cc1` [Compound 583], 3000 to 10000 nM; for `CCCCOc1ccc(C(O)[C@@H](CN2CC[C@@H](F)C2)NC(=O)CCCCCCCOC)cc1` (some centres unmarked) [Compound 584], 100 to 1000 nM. With `CCCCOc1ccc([C@@H](O)[C@@H](CN2CC[C@@H](F)C2)NC(=O)CCCCC(=O)C2CCCCC2)cc1` [Compound 585], the IC50 is 100 to 1000 nM. For `CCCCOc1ccc([C@@H](O)[C@@H](CN2CC[C@H](O)C2)NC(=O)CCCCCCCOC)cc1` [Compound 586] the value was no more than 100 nM. On to `CCCCOc1ccc([C@@H](O)[C@@H](CN2CC[C@H](O)C2)NC(=O)CCCCC(=O)C2CCCCC2)cc1` [Compound 587], for which the IC50 was in the range of 100 to 1000 nM. `CCCCOc1ccc(C(CN2CCCC2)NC(=O)CCCCC(=O)c2ccc(OC)cc2)cc1` (centres unmarked) [Compound 588]: the IC50 was in the range of 3000 to 10000 nM. `CCCCOc1ccc(CC(CN2CCCC2)NC(=O)CCCCC(=O)c2ccc(OC)cc2)cc1` (centres unmarked) [Compound 589]: the IC50 is 1000 to 3000 nM.

The values above are taken from patent publication US8304447B2, “2-acylaminopropoanol-type glucosylceramide synthase inhibitors” (Genzyme Corporation, priority 2007, dated 2012).
